Measured values reported in patent publication US12616704B2, “Cannabichromene formulation for pain management” (Zyus Life Sciences Inc., priority 2020, dated 2026).

Tested on: SNL-induced motor phenotype
Assay: Fine motor kinematic gait analysis (MotoRater) in SNL model
Type: in vivo, Sprague-Dawley rats
Conditions: for Overall kinematic gait score, Vehicle vs. treatment: Summary / Overall kinematic gait score, Vehicle vs. treatment: Predicted (LS) mean diff.: between groups
Experimental: The treatment groups received the following test article mixtures: • Group 1: treated with vehicle (0.9% saline) • Group 2: treated with Pregabalin (50 mg/kg) • Group 3: treated with CBC (10 mg/kg)
Administration of Treatments. CBC (cannabichromene) formulation, the vehicle, or pregabalin treatment was administered according to Table 1 on study day 8 to all study animals, and on study day 10 to 6 animals per group. The dousing route of CBC or the vehicle were intragastric (p.o.), while pregabalin was administered intraperitoneally (i.p.). In addition to D8, pregabalin was administered on D9, at 2 h prior to the evf test. All animals of the pregabalin group were euthanized on D9, following the last test trial. The CBC was dissolved and diluted to one of the following vehicles:
Fine Motor Kinematic Gait Analysis. The subjected to gait analysis at the baseline and on study days 8, 9, 11, 14 and 17, at a minimum of 30 min after the evF test. The assay was carried out by MotoRater (TSE Systems, Homburg, Germany), with the walking mode. Prior to commencing the test, the essential body points (e.g. joints, limbs, nose, tail) were marked for tracking. The information of the gait performance was captured using a high speed camera (300 frames/second) from below and both sides. Next, the captured videos are converted to custom software. The raw data was obtained by tracking the marked points of the body from the videos recorded from all 3 dimensions. The raw data thus comprise correlation of the movements of different body points in coordinates related to the ground and each three dimensions.
Different gait patterns and movements were analyzed using a custom made automated analysis system. Information about altogether over a hundred kinematic parameters were attained. These comprised e.g:
All MotoRater data were analyzed for the distinct parameters, as well as for all combined parameters, using principal component analysis (PCA). The obtained results produce the model phenotype in gait analysis i.e. the difference between vehicle and cannabinoid treated animals regarding both individual parameters and PCA.
In addition to the baseline test, the motorater test was performed altogether four times over the course of behavioral study phase: • on D7, to assess the model-specific motor defects prior to dosing, • on D8, after finishing the 4-h evF, • on D8, after finishing the 8-h evF, and • on D9, after finishing the 24-h evF.
The kinematic assay was not performed to the animals before a minimum of 30 min after evF test.

[1] = BL (before dosing), vehicle vs. pregabalin group
[2] = D 7 (pre-dosing), vehicle vs. pregabalin group
[3] = within group, CBC 10 mg/kg p.o., pregabalin 50 mg/kg i.p.
[4] = within group, z-score, CBC 10 mg/kg p.o., pregabalin 50 mg/kg i.p.

`CC(C)C[C@H](CN)CC(=O)O` [Pregabalin, pregabalin, reference compound] was tested, and the “Duty Cycle [%]: Stats” value [1] was 2.77, the “Duty Cycle, Fore [%]: Stats” value [1] was 3.26 and the “Mean Hip Jerk [m/s3]: Adjusted p-value” [1] was 0.001. The “Mean Hip Jerk [m/s3]: Adjusted p-value Sig?” value [1] was “*** (*** p≤0.001)”, the “Mean Hip Jerk [m/s3]: Stats” value [1] was −3.75 and the “Mean Hip Jerk [m/s3]: p-value” [1] was 0.001. The “Knee ROM Deviation [degree]: Stats” value (BL (before dosing), vehicle vs. treatment group) was 3.23, the “Overall kinematic gait score, Vehicle vs. treatment: Summary” value (Baseline (before SNL and dosing)) was “* (p<0.05, significant)” and the “Overall kinematic gait score, Vehicle vs. treatment: Predicted (LS) mean diff.” value (Baseline (before SNL and dosing), z-score) was −2.013. For the same compound, the “Overall kinematic gait score, Vehicle vs. treatment: Summary” value (D7 (pre-dosing)) was “ns”, the “Paw Trajectory Shape 25%, Hind [%]: Stats” value [2] was −3.01 and the “Relative Trajectory Length, Fore: Stats” value [2] was −3.26. The “Overall kinematic gait score, Vehicle vs. treatment: Predicted (LS) mean diff.” value (D7 (pre-dosing), z-score) was −0.5896, the “Overall kinematic gait score, Vehicle vs. treatment: Summary” value (D8 5 h, CBC 10 mg/kg p.o., pregabalin 50 mg/kg i.p.) was “ns” and the “Ankle Angle, Min [degree]: Stats” value (D 8 5 h, vehicle vs. pregabalin 50 mg/kg) was −2.99. For the same compound, the “Ankle Angle, Max [degree]: Stats” value (D 8 5 h, vehicle vs. treatment, CBC 10 mg/kg, pregabalin 50 mg/kg) was −3.74, the “Overall kinematic gait score, Vehicle vs. treatment: Predicted (LS) mean diff.” value (D8 5 h, z-score, CBC 10 mg/kg p.o., pregabalin 50 mg/kg i.p.) was −0.2262 and the “Overall kinematic gait score, Vehicle vs. treatment: Summary” value (D8 9 h, CBC 10 mg/kg p.o., pregabalin 50 mg/kg i.p.) was “ns”. The “Hip ROM [degree]: Stats” value (D 8 9 h, vehicle vs. pregabalin 50 mg/kg) was 2.85, the “Overall kinematic gait score, Vehicle vs. treatment: Predicted (LS) mean diff.” value (D8 9 h, z-score, CBC 10 mg/kg p.o., pregabalin 50 mg/kg i.p.) was −0.8408 and the “Overall kinematic gait score, Vehicle vs. treatment: Summary” value (D9, CBC 10 mg/kg p.o., pregabalin 50 mg/kg i.p.) was “ns”. For the same compound, the “Overall kinematic gait score, Vehicle vs. treatment: Predicted (LS) mean diff.” value (D9, z-score, CBC 10 mg/kg p.o., pregabalin 50 mg/kg i.p.) was −0.8531, the “Overall kinematic gait score, D7 vs. D8 5 h: Summary” value [3] was “ns” and the “Overall kinematic gait score, D7 vs. D8 9 h: Summary” value [3] was “** (p<0.01, very significant)”. For the same compound, the “Overall kinematic gait score, D7 vs. D9: Summary” value [3] was “ns”, the “Overall kinematic gait score, D7 vs. Baseline: Summary” value (within group, before dosing) was “** (p<0.01, very significant)” and the “Overall kinematic gait score, D7 vs. D8 5 h: Predicted (LS) mean diff.” value [4] was −1.135. For the same compound, the “Overall kinematic gait score, D7 vs. D8 9 h: Predicted (LS) mean diff.” value [4] was −2.27, the “Overall kinematic gait score, D7 vs. D9: Predicted (LS) mean diff.” value [4] was −1.271 and the “Overall kinematic gait score, D7 vs. Baseline: Predicted (LS) mean diff.” value (within group, z-score, before dosing) was 1.964.
